Experimental data from US20240092773A1, “DIHYDRO-CYCLOPENTA-ISOQUINOLINE SULFONAMIDES DERIVATIVES” (UCB Biopharma SRL, priority 2019, published 2024).

Target: IgE-Tb binding to soluble IgE receptor FcεR1α (Y131A mutation) (Homo sapiens, UniProt P01854, N146Q/N252Q)
Assay: In vitro FRET assay: inhibition of binding of IgE-Tb to receptor FcεR1α-Y131A-AF488
Settings: read-out: FRET IC50 range

IgE-Tb binding to soluble IgE receptor FcεR1α (Y131A mutation), sequence (P01854 whole entry N146Q/N252Q, looked up): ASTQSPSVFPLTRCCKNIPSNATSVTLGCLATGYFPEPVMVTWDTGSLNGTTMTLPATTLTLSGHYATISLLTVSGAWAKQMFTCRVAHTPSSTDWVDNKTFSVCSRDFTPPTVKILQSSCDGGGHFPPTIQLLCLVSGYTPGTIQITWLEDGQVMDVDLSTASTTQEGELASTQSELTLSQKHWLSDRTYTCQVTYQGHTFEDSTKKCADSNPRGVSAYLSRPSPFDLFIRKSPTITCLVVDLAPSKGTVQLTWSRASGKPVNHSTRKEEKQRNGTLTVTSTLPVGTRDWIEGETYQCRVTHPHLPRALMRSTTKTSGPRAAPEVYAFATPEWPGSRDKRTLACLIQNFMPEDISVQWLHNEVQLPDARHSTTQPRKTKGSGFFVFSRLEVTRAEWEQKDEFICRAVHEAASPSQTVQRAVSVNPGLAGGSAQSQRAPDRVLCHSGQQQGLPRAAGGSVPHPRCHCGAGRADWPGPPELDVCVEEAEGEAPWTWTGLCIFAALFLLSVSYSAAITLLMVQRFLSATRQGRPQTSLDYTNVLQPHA

SMILES | IC50
CC(C)(F)CNS(=O)(=O)c1cc2c(c3cnc(C4CC4)cc13)CC[C@@H]2NC(=O)C1CN(C(=O)OC(C)(C)C)C1 (single isomer, unassigned) [Example 56, tert-butyl 3-[[(7R*)-3-cyclopropyl-5-[(2-fluoro-2-methylpropyl)sulfamoyl]-8,9-dihydro-7H-cyclopenta[h]isoquinolin-7-yl]carbamoyl]azetidine-1-carboxylate] | 0.1 to 2 µM
CC(C)CNS(=O)(=O)c1cc2c(c3cnc(C4CC4)cc13)C(Nc1c(Nc3cccnc3)c(=O)c1=O)CC2 (stereo not drawn) [Example 78, 3-cyclopropyl-9-[[3,4-dioxo-2-(pyridin-3-ylamino)cyclobuten-1-yl]amino]-N-(2-methylpropyl)-8,9-dihydro-7H-cyclopenta[h]isoquinoline-5-sulfonamide] | 0.05 to 0.1 µM
[2H]C([2H])(NS(=O)(=O)c1cc2c(c3cnc(C4CC4)cc13)CCC2NC(=O)OC(C)(C)C)C(C)C (stereo not drawn) [Example 33, tert-butyl N-[3-cyclopropyl-5-[(1,1-dideuterio-2-methylpropyl)sulfamoyl]-8,9-dihydro-7H-cyclopenta[h]isoquinolin-7-yl]carbamate] | 0.1 to 2 µM
CC(C)(F)CNS(=O)(=O)c1cc2c(c3cnc(C4CC4)cc13)CCC2NCc1cc2ccccc2[nH]1 (stereo not drawn) [Example 61, 3-cyclopropyl-N-(2-fluoro-2-methylpropyl)-7-(1H-indol-2-ylmethylamino)-8,9-dihydro-7H-cyclopenta[h]isoquinoline-5-sulfonamide] | 0.1 to 2 µM
CC(C)CNS(=O)(=O)c1cc2c(c3cnc(C4CC4)cc13)CCC2=O [Example 48, 3-cyclopropyl-N-(2-methylpropyl)-7-oxo-8,9-dihydrocyclopenta[h]isoquinoline-5-sulfonamide] | 0.1 to 2 µM
Cn1nnc(-c2ccc(NC3CCc4c3cc(S(=O)(=O)NCC(C)(C)F)c3cc(C5CC5)ncc43)cn2)n1 (stereo not drawn) [Example 40, 3-cyclopropyl-N-(2-fluoro-2-methylpropyl)-7-[[6-(2-methyltetrazol-5-yl)pyridin-3-yl]amino]-8,9-dihydro-7H-cyclopenta[h]isoquinoline-5-sulfonamide] | 0.001 to 0.01 µM
CC(C)CNS(=O)(=O)c1cc2c(c3nnc(C4CC4)cc13)CCC2 [Example 22, 3-cyclopropyl-N-(2-methylpropyl)-8,9-dihydro-7H-cyclopenta[h]cinnoline-5-sulfonamide] | 0.05 to 0.1 µM
Cc1nnc(-c2ccc(NC3CCc4c3cc(S(=O)(=O)NCC(C)(C)F)c3cc(C5CC5)ncc43)cn2)o1 (stereo not drawn) [Example 42, 3-cyclopropyl-N-(2-fluoro-2-methylpropyl)-7-[[6-(5-methyl-1,3,4-oxadiazol-2-yl)pyridin-3-yl]amino]-8,9-dihydro-7H-cyclopenta[h]isoquinoline-5-sulfonamide] | 0.001 to 0.01 µM
CCNc1c(NC2CCc3c2cc(S(=O)(=O)NCC(C)C)c2cc(C4CC4)ncc32)c(=O)c1=O (single isomer, unassigned) [Example 53, (7R*)-3-cyclopropyl-7-[[2-(ethylamino)-3,4-dioxocyclobuten-1-yl]amino]-N-(2-methylpropyl)-8,9-dihydro-7H-cyclopenta[h]isoquinoline-5-sulfonamide] | 0.01 to 0.05 µM
[2H]C([2H])(NS(=O)(=O)c1cc2c(c3cnc(C4CC4)cc13)CCC2N)C(C)C (stereo not drawn) [Example 34, 7-amino-3-cyclopropyl-N-(1,1-dideuterio-2-methylpropyl)-8,9-dihydro-7H-cyclopenta[h]isoquinoline-5-sulfonamide] | 0.1 to 2 µM
COc1cncc(NC2CCc3cc(S(=O)(=O)NCC(C)(C)F)c4cc(C5CC5)ncc4c32)c1 (stereo not drawn) [Example 30, 3-cyclopropyl-N-(2-fluoro-2-methylpropyl)-9-[(5-methoxypyridin-3-yl)amino]-8,9-dihydro-7H-cyclopenta[h]isoquinoline-5-sulfonamide] | 0.01 to 0.05 µM
Cc1ccc(NC(=NC#N)NC2CCc3c2cc(S(=O)(=O)NCC(C)C)c2cc(C4CC4)ncc32)cc1 (stereo not drawn) [Example 55, 2-cyano-1-[3-cyclopropyl-5-(2-methylpropylsulfamoyl)-8,9-dihydro-7H-cyclopenta[h]isoquinolin-7-yl]-3-(4-methylphenyl)guanidine] | 0.1 to 2 µM
Cc1cc(C(=O)N[C@@H]2CCc3cc(S(=O)(=O)NCC(C)C)c4cc(C5CC5)ncc4c32)n[nH]1 (single isomer, unassigned) [Example 20, 5-methyl-N-[(9R*)-3-cyclopropyl-5-(2-methylpropylsulfamoyl)-8,9-dihydro-7H-cyclopenta[h]isoquinolin-9-yl]-1H-pyrazole-3-carboxamide] | 0.1 to 2 µM
Cn1nnc(-c2ccc(NC3CCc4cc(S(=O)(=O)NCC(C)(C)F)c5cc(C6CC6)ncc5c43)cn2)n1 (stereo not drawn) [Example 77, 3-cyclopropyl-N-(2-fluoro-2-methylpropyl)-9-[[6-(2-methyltetrazol-5-yl)pyridin-3-yl]amino]-8,9-dihydro-7H-cyclopenta[h]isoquinoline-5-sulfonamide] | 0.05 to 0.1 µM
CC(C)CNS(=O)(=O)c1cc2c(c3cnc(C4CC4)cc13)C(Nc1nncn1-c1cncc(F)c1)CC2 (stereo not drawn) [Example 5, 3-cyclopropyl-9-[[4-(5-fluoro-3-pyridyl)-1,2,4-triazol-3-yl]amino]-N-isobutyl-8,9-dihydro-7H-cyclopenta[h]isoquinoline-5-sulfonamide] | 0.1 to 2 µM
CC(C)CNS(=O)(=O)c1cc2c(c3cnc(C4CC4)cc13)C(NCc1cccnc1)CC2 (stereo not drawn) [Example 14, 3-cyclopropyl-N-(2-methylpropyl)-9-(pyridin-3-ylmethylamino)-8,9-dihydro-7H-cyclopenta[h]isoquinoline-5-sulfonamide] | 0.1 to 2 µM
CC(C)(F)CNS(=O)(=O)c1cc2c(c3cnc(C4CC4)cc13)CC[C@H]2C(=O)Nc1cccnc1 (single isomer, unassigned) [Example 37, (7R*)-3-cyclopropyl-5-[(2-fluoro-2-methylpropyl)sulfamoyl]-N-pyridin-3-yl-8,9-dihydro-7H-cyclopenta[h]isoquinoline-7-carboxamide] | 0.1 to 2 µM
Cn1cc(C#N)c(NC2CCc3cc(S(=O)(=O)NCC(C)(C)F)c4cc(C5CC5)ncc4c32)n1 (stereo not drawn) [Example 67, 9-[(4-cyano-1-methylpyrazol-3-yl)amino]-3-cyclopropyl-N-(2-fluoro-2-methylpropyl)-8,9-dihydro-7H-cyclopenta[h]isoquinoline-5-sulfonamide] | 0.1 to 2 µM
CC(C)CNS(=O)(=O)c1cc2c(c3cnc(C4CC4)cc13)C(n1cnnc1Nc1ccnn1C)CC2 (stereo not drawn) [Example 4, 3-cyclopropyl-N-isobutyl-9-[3-[(2-methylpyrazol-3-yl)amino]-1,2,4-triazol-4-yl]-8,9-dihydro-7H-cyclopenta[h]isoquinoline-5-sulfonamide] | 0.1 to 2 µM
CC1CC1C(=O)NC1CCc2cc(S(=O)(=O)NCC(C)(C)F)c3cc(C4CC4)ncc3c21 (stereo not drawn) [Example 26, N-[3-cyclopropyl-5-[(2-fluoro-2-methylpropyl)sulfamoyl]-8,9-dihydro-7H-cyclopenta[h]isoquinolin-9-yl]-2-methylcyclopropane-1-carboxamide] | 0.1 to 2 µM
CC(C)(F)CNS(=O)(=O)c1cc2c(c3cnc(C4CC4)cc13)CCC2Oc1cccnc1 (stereo not drawn) [Example 94, 3-cyclopropyl-N-(2-fluoro-2-methylpropyl)-7-pyridin-3-yloxy-8,9-dihydro-7H-cyclopenta[h]isoquinoline-5-sulfonamide] | 0.1 to 2 µM
